Source: patent publication US20240190903A1, “COMPOUNDS FOR PROGRAMMABLE PROTEIN DEGRADATION AND METHODS OF USE FOR THE TREATMENT OF DISEASE” (Mayo Foundation for Medical Education and Research, priority 2021, published 2024)

Columns and labels:
VCaP cells = experiment: MTS cell growth assay in VCaP cells; type: cell-based, human; conditions: compound added to cells, different doses
Description: VCaP cells were seeded at the density of 5,000 cells per well in 96-well plate overnight. At the indicated time points, optical density (OD) of cells was measured by microtiter reader (Biotek) at 490 nanometer after incubation with MTS (Promega) for 2 hours at 37° C. in a cell incubator. For the treatment with CP-2, ICG-001 or PRI-724, cells were seeded in 96-well plate overnight followed by adding indicated compounds. OD values were measured at the indicated time points.

[1] = test system: PSGs and canonical β-Catenin target genes CCND1 and c-MYC; experiment: RT-qPCR and western blot of PSGs, CCND1 and c-MYC in VCaP cells; type: cell-based, human
Description: PRI-724 is a pro-drug of C-82, a second-generation specific β—Catenin/CBP antagonist.
The total RNA was extracted from cultured cells or organoids using Trizol reagent (Thermo Fisher Scientific) according to the manufacturer's instructions. Complementary DNA was synthesized using reverse transcriptase (Promega). mRNA expression level was determined by real-time quantitative PCR (qPCR) using SYBR Green Mix (Thermo Fisher Scientific) with the realtime PCR system (Bio-Rad). Relative gene expression was normalized to the expression of house-keeping gene Actin Beta (ACTB).

293T and VCaP cell lines = experiment: Fluorescent microscopy of FITC-labelled ERG O′PROTAC transfection/uptake; type: cell-based, human; conditions: 293T cells
Description: FIGS. 2A-2C. ERG O′PROTACs degrade ERG protein in cultured cells. (FIG. 2A) 293T cells were transfected with FITC-labelled ERG O′PROTAC-13 (100 nM and 1,000 nM), and the transfection efficiency was monitored 48 hours post-transfection using a fluorescent microscope. Scale bar: 50 μm. (FIG. 2B) 293T cells were transfected with HA-ERG plasmid and a control or six indicated ERG O′PROTACs (100 nM) and harvested for western blot analysis 48 hours post-transfection. ERK2 was used as a loading control. (FIG. 2C) VCaP cells were transfected with a control or six indicated ERG O′PROTACs (100 nM), and cells were harvested for western blot analysis 48 hours post-transfection. Both endogenous full-length (FL) wild-type and TMPRSS2-ERG (T2-ERG) truncated ERG were detected.
FIGS. 12A-12H. Phthalic acid-based ERG O′PROTAC degrades ERG oncoprotein. […] The P values were determined using the unpaired two-tailed Student's t-test. n.s. represents not significant by comparing the values in ERG O′PROTAC-treated groups to the control OP-treated group. […] The remaining ERG protein (%) was calculated by normalizing the value of each group to that of the group without ERG OP-C-P1 treatment. (FIG. 12H) The concentration of ERG OP-C-P1 degrading 50% of ERG protein (DC50) was calculated with Prism software. […]

[2] = physiological pH 7.4; hydrolysis of phthalimide and glutarimide moiety; cited from earlier work
VCaP xenografts = VCaP xenografts in SCID mice; type: in vivo; conditions: 25 mg/kg, 23 days
Description: For IHC, tissues were rehydrated, endogenous peroxidase activity was destroyed, and antigens were retrieval. Antibodies for IHC as following: anti-AR (ab108341, Abcam), anti-ERG (ab92513, Abcam), anti-Ki67 (ab15580), anti-UMPS (NOVUS, #85896), anti-RRM1 (Cell signaling technology, #8637), anti-CBP (Santa Cruz Biotechnology, sc-583), anti-LEF1 (Cell signaling technology, #2230S). For quantification, the staining score was determined by multiplying the percentage of positive cells and the intensity ranged from 1 (weak staining), 2 (median staining), and 3 (strong staining). For Ki67 quantification, cells with positive staining in the nucleus were included to calculate the percentage of Ki67 positive-staining cells.
Six-week SCID male mice were used in the study. Mice were subcutaneously injected with VCaP cells (5×10^6) mixed with Matrigel mixture (1×PBS: Matrigel (BD Biosciences)=1:1). After the xenografts reached a size of approximately 100 mm^3, mice were treated intraperitoneally with vehicle (90% corn oil (Sigma-Aldrich)+10% DMSO), ICG-001 or CBP PROTAC CP2 at 25 mg/kg for 5 days per week. For LEF1/TCF O′PROTAC administration, mice were transplanted with LuCaP23.1 PDX tumors in the approximately same volume. […] Tumor length (L) and width (W) were measured every 3 days, and tumor volumes were calculated by the formula: (L×W^2)/2. […]

Molecule	VCaP cell growth (MTS) (VCaP cells)	expression of PSGs, CCND1 and c-MYC at mRNA and protein levels [1]	further results
C[C@H]1[C@H]2N(C(=O)CN(C)N2C(=O)NCc2ccccc2)[C@@H](Cc2ccc(OP(=O)(O)O)cc2)C(=O)N1Cc1cccc2cccnc12 [PRI-724]	inhibition	inhibition	–
FITC-ERG OP-C1: Forward 5′-FITC-ACGGACCGGAAATCCGGTT-3′; reverse 5′-P1-AACCGGATTTCCGGTCCGT-3′	–	–	uptake efficacy at 100 nM versus 1,000 nM (293T and VCaP cell lines): no difference in uptake efficacy; cellular uptake with lipofectamine 2000 versus mock transfection (293T and VCaP cell lines; 100 or 1,000 nM): greatly enhanced the cellular uptake
O=C1CCC(N2C(=O)c3ccccc3C2=O)C(=O)N1 (centres unmarked) [thalidomide]	–	–	stability [2]: poor stability
O=C1[C@H](Cc2ccc(O)cc2)N2C(=O)CCN(C(=O)NCc3ccccc3)[C@H]2CN1Cc1cccc2ccccc12 [ICG-001]	inhibited cell growth	decreased expression	mouse body weight (VCaP xenografts): did not result in obvious deleterious effect
